Values quoted from earlier work as cited in patent publication US20230056788A1, “METHODS AND COMPOSITIONS FOR THE INHIBITION OF HEPATITIS B AND HEPATITIS D VIRUS INFECTIONS” (priority 2020, published 2023).
In the oligonucleotide strings, read from the 5' end, every base follows the letter of its sugar. An asterisk marks phosphorothioate; unmarked linkages are phosphodiester. Other units and linkages are bracketed, terminal groups are in braces. A string of capitals states the bases alone. [5mC] = 5-methylcytosine; m = 2'-O-methyl

Assays:
HBV [1] = details: HBeAg positive and negative chronic infection and HBV/HDV co-infection
HBV [2] = system: HBV

Substance | activity against infections with multiple HBV genotypes (HBV [1]) | antiviral activity (HBV [2])
(2′OMeA, 2′OMe-5-MeC)20 (mA*m[5mC]*mA*m[5mC]*mA*m[5mC]*mA*m[5mC]*mA*m[5mC]*mA*m[5mC]*mA*m[5mC]*mA*m[5mC]*mA*m[5mC]*mA*m[5mC]*mA*m[5mC]*mA*m[5mC]*mA*m[5mC]*mA*m[5mC]*mA*m[5mC]*mA*m[5mC]*mA*m[5mC]*mA*m[5mC]*mA*m[5mC]*mA*m[5mC]; further chemistry not fully specified) [REP 2139] | potently active | –
(2′OMeA, 2′OMe-5-MeC)20 (mAm[5mC]mAm[5mC]mAm[5mC]mAm[5mC]mAm[5mC]mAm[5mC]mAm[5mC]mAm[5mC]mAm[5mC]mAm[5mC]mAm[5mC]mAm[5mC]mAm[5mC]mAm[5mC]mAm[5mC]mAm[5mC]mAm[5mC]mAm[5mC]mAm[5mC]mAm[5mC]; further chemistry not fully specified) [REP 2147, non phosphorothioated (phosphodiester) counterpart of REP 2139] | – | inactive
(2′OMeA, 2′OMe-5-MeC)10 (mA*m[5mC]*mA*m[5mC]*mA*m[5mC]*mA*m[5mC]*mA*m[5mC]*mA*m[5mC]*mA*m[5mC]*mA*m[5mC]*mA*m[5mC]*mA*m[5mC]; further chemistry not fully specified) [REP 2179, phosphorothioate 20mer counterpart of REP 2139] | – | (hydrophobic, inactive
